Reference: patent publication US10414759B2, “Phenylthiazoles and uses thereof” (Purdue Research Foundation, priority 2017, dated 2019)
Converted amounts (≈) assume the structure as drawn. Where two headings read alike, the source gives them in different places.

Tests used:
S. aureus ATCC 6538 = experiment: MIC/MBC S. aureus strains (Table 8); assay type: cell-based; settings: Staphylococcus aureus, ATCC6538
Description: (§1) A bacterial solution equivalent to 0.5 McFarland standard was prepared and diluted in cation-adjusted Mueller-Hinton broth (CAMHB) to achieve a bacterial concentration of about 5×10^5 CFU/mL and seeded in 96-well plates. Enterococcus faecium was diluted in brain heart infusion broth. Enterococcus faecalis, Streptococcus pneumonia and Listeria monocytogenes were diluted in tryptone soya broth (TSB).

MRSA (USA300) = experiment: Time-kill assay; assay type: cell-based, Staphylococcus aureus
Description: Aliquots (100 μL) were taken from each sample after 2, 4, 6, 8, 10, 12, and 24 hours, serially diluted in phosphate-buffered saline, and transferred to Trypticase soy agar (TSA) (Becton, Dickinson and Company, Sparks, Md., USA) plates. Plates were incubated at 37° C. for at least 16 hours before counting viable CFU/mL to determine the time required to reduce the bacterial cell count by 3-log10.

[1] = tested on: human colorectal (Caco-2) cell; experiment: In vitro cytotoxicity against Caco-2 cells (MTS); assay type: cell-based; settings: at 32 μg/mL
Description: Tested compounds were assayed (at concentrations of 16, 32, and 64 μg/mL) against a human colorectal (Caco-2) cell to determine the potential toxic effect to mammalian cells in vitro. Briefly, cells were cultured in Dulbecco's Modified Eagle Medium (DMEM) supplemented with 20% fetal bovine serum (FBS), non-essential amino acids (1×), and penicillin-streptomycin at 37° C. with CO2 (5%). Control cells received DMSO alone at a concentration equal to that in drug-treated cell samples. The cells were incubated with the compounds (in triplicate) in a 96-well plate at 37° C. with CO2 (5%) for two hours. The assay reagent MTS 3-(4,5-dimethylthiazol-2-yl)-5-(3-carboxymethoxyphenyl)-2-(4-sulfophenyl)-2H-tetrazolium) (Promega, Madison, Wis., USA) was subsequently added and the plate was incubated for four hours. Absorbance readings (at OD490) were taken using a kinetic microplate reader (Molecular Devices, Sunnyvale, Calif., USA). The quantity of viable cells after treatment with each compound was expressed as a percentage of the viability of DMSO-treated control cells (average of triplicate wells±standard deviation). The toxicity data was analyzed via a two-way ANOVA, with post hoc Sidak's multiple comparisons test (P<0.05), utilizing GraphPad Prism 6.0 (GraphPad Software, La Jolla, Calif.).

MRSA USA400 (NRS123) = experiment: Multi-step resistance selection experiment; assay type: cell-based, Staphylococcus aureus; settings: MRSA USA400, sub-lethal doses, 14 daily passages
Description: To determine if MRSA would be capable of forming resistance to the compounds quickly, a multi-step resistance selection experiment was conducted, as described previously. The broth microdilution assay was utilized to determine the MIC of the tested compounds and rifampicin exposed to MRSA USA400 (NRS123) for 14 passages over a period of two weeks. Resistance was classified as a greater than four-fold increase in the initial MIC, as reported elsewhere.

[2] = tested on: Methicillin-resistant Streptococcus pneumoniae ATCC 700677; experiment: MIC/MBC Gram-positive pathogens (Table 9); assay type: cell-based; settings: ATCC700677
Description: as §1

[3] = tested on: Enterococcus faecalis ATCC 51299 (VRE); experiment: MIC/MBC Gram-positive pathogens (Table 9); assay type: cell-based
Description: as §1

[4] = tested on: Cephalosporin-resistant Streptococcus pneumoniae ATCC 51916; experiment: MIC/MBC Gram-positive pathogens (Table 9); assay type: cell-based; settings: ATCC51916
Description: as §1

MRSA (2658 RCMB) = experiment: MIC against MRSA (2658 RCMB), broth dilution; assay type: cell-based, Staphylococcus aureus; settings: Staphylococcus aureus; Table 7; initial screening, MRSA (2658 RCMB); read-out: minimum inhibitory concentration (MIC)
How it was run: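 Broth dilution in cation-adjusted Mueller-Hinton broth with an inoculum of about 5×10^5 CFU/mL (from a 0.5 McFarland suspension), using triplicate serial dilutions. MIC was the lowest concentration with no visible growth by visual inspection, reported as the mean of triplicates.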

[5] = In vivo PK in rats after single IV bolus injection; design: species or system Sprague-Dawley (SD) rats
Description: In vivo Pharmacokinetics. Pharmacokinetic studies were performed in male naïve Sprague-Dawley (SD) rats (three animals) following Institutional Animal Care and Use Committee guidelines. An IV bolus of a 5 μM solution of compound 19 was directly administered via tail-vein injection. Blood samples were collected over a 12-hour period post dose into Vacutainer tubes containing EDTA-K2. Plasma was isolated, and the concentration of tested compounds in plasma was determined with LC/MS/MS after protein precipitation with acetonitrile. Two-compartmental pharmacokinetic analysis was performed on plasma concentration data in order to calculate pharmacokinetic parameters.

S. aureus NRS107 = experiment: MIC/MBC S. aureus strains (Table 8); assay type: cell-based, Staphylococcus aureus; settings: Staphylococcus aureus; Table 8; S. aureus NRS107
Description: as §1

VRSA10 = experiment: MIC/MBC clinical isolate panel (Table 3); assay type: cell-based, S. aureus; settings: Staphylococcus aureus
Description: (§2) MRSA clinical isolates, and vancomycin-resistant Staphylococcus aureus (VRSA) strain were obtained through the Network of Antimicrobial Resistance in Staphylococcus aureus (NARSA) program. In addition, vancomycin-resistant Enterococcus faecium (VRE) strain was obtained from the ATCC. Bacteria were cultured in cation-adjusted Mueller Hinton broth in a 96-well plate. Compounds, using triplicate samples, were added to the plate and serially diluted. […] Plates were visually inspected and the MIC was categorized as the concentration at which no visible growth of bacteria was observed. The average of triplicate MIC determinations is reported.
(§3) The minimum inhibitory concentration (MIC) of tested compounds and control antibiotics were determined using the broth microdilution method in accordance with the recommendations contained in the Clinical and Laboratory Standards Institute guidelines, against methicillin-sensitive (ATCC 6538 and NRS107), methicillin-resistant (MRSA), and vancomycin-resistant (VRSA) Staphylococcus aureus, Staphylococcus epidermidis, Enterococcus faecalis, E. faecium, Listeria monocytogenes, and Streptococcus pneumoniae clinical isolates. A bacterial solution equivalent to 0.5 McFarland standard was prepared and diluted in cation-adjusted Mueller-Hinton broth (CAMHB) to achieve a bacterial concentration of about 5×10^5 CFU/mL and seeded in 96-well plates. Enterococcus faecium was diluted in brain heart infusion broth. Enterococcus faecalis, Streptococcus pneumonia and Listeria monocytogenes were diluted in tryptone soya broth (TSB). Compounds and control drugs were added in the first row of 96-well plates and serially diluted (to achieve a concentration gradient ranging from 128 to 1 μg/mL). Plates were then incubated aerobically at 37° C. for at least 18 hours. The minimum bactericidal concentration (MBC) of the active compounds was tested by plating 5 μL from wells with no growth onto Tryptic soy agar (TSA) plates.

VRE ATCC 700221 = experiment: MIC/MBC clinical isolate panel (Table 3); assay type: cell-based, Enterococcus faecium; settings: Enterococcus
Description: as §2, §3

[6] = tested on: methicillin-sensitive S. aureus (MSSA), MRSA and VRSA strains; experiment: MIC/MBC summary over the S. aureus strain panel; assay type: cell-based
Description: as §3

[7] = tested on: MRSA USA300 (NRS384) biofilm; experiment: MRSA biofilm eradication, microtiter dish biofilm formation assay; assay type: cell-based, Staphylococcus aureus
Description: The bacterial suspension was removed and compounds were added at concentrations ranging from 128 to 1 μg/mL in TSB. Compounds were incubated with the biofilm at 37° C. for 24 hours. In order to quantify the biofilm mass, the bacterial suspension was removed and wells were washed with phosphate-buffered saline to remove planktonic bacteria. An aliquot of 0.1% crystal violet was added to each well to stain biofilm mass. After 30 minutes, wells were washed with sterile water and dried. Wells were de-stained using 100% ethanol prior to quantifying biofilm mass using a spectrophotometer (OD595). Data are presented as percent eradication of MRSA USA300 biofilm for each test agent relative to the negative (DMSO) control wells. Data were analyzed using two-way ANOVA with post-hoc Sidak's test for multiple comparisons (P<0.05).

VRS10 (VRSA) = experiment: MIC/MBC S. aureus strains (Table 8); assay type: cell-based; settings: Staphylococcus aureus, VRSA
Description: as §3

VRS12 (VRSA) = experiment: MIC/MBC S. aureus strains (Table 8); assay type: cell-based; settings: Staphylococcus aureus, VRSA
Description: as §3

[8] = tested on: Enterococcus faecium ATCC 700221 (VRE); experiment: MIC/MBC Gram-positive pathogens (Table 9); assay type: cell-based; settings: Enterococcus faecium
Description: as §3

NRS123 (MRSA USA400) = experiment: MIC/MBC clinical isolate panel (Table 3); assay type: cell-based, S. aureus; settings: Staphylococcus aureus
Description: (§4) Bacteria were cultured in cation-adjusted Mueller Hinton broth in a 96-well plate. Compounds, using triplicate samples, were added to the plate and serially diluted. […] Plates were visually inspected and the MIC was categorized as the concentration at which no visible growth of bacteria was observed. The average of triplicate MIC determinations is reported.
as §1

NRS384 (MRSA USA300) = experiment: MIC/MBC clinical isolate panel (Table 3); assay type: cell-based, S. aureus; settings: Staphylococcus aureus
Description: as §4, §1

NRS72 (MSSA) = experiment: MIC/MBC clinical isolate panel (Table 3); assay type: cell-based, S. aureus; settings: Staphylococcus aureus
Description: as §4, §1

NRS119 (MRSA) = experiment: MIC/MBC clinical isolate panel (Table 3); assay type: cell-based, S. aureus; settings: Staphylococcus aureus
Description: as §4, §1

NRS382 (MRSA USA100) = experiment: MIC/MBC clinical isolate panel (Table 3); assay type: cell-based, S. aureus; settings: Staphylococcus aureus
Description: as §4, §1

NRS383 (MRSA USA200) = experiment: MIC/MBC clinical isolate panel (Table 3); assay type: cell-based, S. aureus; settings: Staphylococcus aureus
Description: as §4, §1

[9] = tested on: methicillin-sensitive S. aureus (MSSA), MRSA and VRSA strains; settings: literature (Moran, N. Engl. J. Med. 2006); cited from earlier work

## Cc1nc(-c2ccc(C(C)(C)C)cc2)sc1-c1ccnc(NCCN)n1 [Compound 54, N-(4-(2-(4-(tert-Butyl)phenyl)-4-methylthiazol-5-yl)pyrimidin-2-yl)ethane-1,2-diamine]
S. aureus ATCC 6538
  MIC: 4 µg/mL (≈ 10.9 µM)
MRSA (USA300); MRSA, 3.0×MIC
  bactericidal / bacteriostatic behaviour in time-kill assay, in words: rapid bactericidal activity
MRSA (USA300); t-butyl series, 3.0×MIC
  time to completely eradicate the MRSA inoculum: within two to four hours
[1]
  tolerability to human colorectal cells, in words: highly tolerable
MRSA USA400 (NRS123)
  increase in MIC by/after the ninth passage: one-fold
[2]
  MBC: 16 µg/mL (≈ 43.5 µM)
  MIC: 2 µg/mL (≈ 5.44 µM)
[3]; Table 9, Enterococcus faecalis ATCC 51299 (VRE)
  MIC: 16 µg/mL (≈ 43.5 µM)
[3]; Table 9, Enterococcus faecalis ATCC 51299 (VRE), read-out: MBC
  MBC: 16 µg/mL (≈ 43.5 µM)
[4]
  MBC: 16 µg/mL (≈ 43.5 µM)
MRSA (2658 RCMB)
  MIC: 1.17 µg/mL (≈ 3.18 µM)
[5]
  AUC: 3980 ng·h/mL
  CL (clearance): 1.26 L/h
  Vdss (volume of distribution at the steady state): 3.39 L
  Vβ (volume of distribution in 2nd compartment, peripheral tissues): 16.36 L
  t1/2 (half-life): 9.03 h
S. aureus NRS107
  MIC: 4 µg/mL (≈ 10.9 µM)

## CN[C@H](CC(C)C)C(=O)N[C@H]1C(=O)N[C@@H](CC(N)=O)C(=O)N[C@H]2C(=O)N[C@H]3C(=O)N[C@H](C(=O)N[C@H](C(=O)O)c4cc(O)cc(O)c4-c4cc3ccc4O)[C@H](O)c3ccc(c(Cl)c3)Oc3cc2cc(c3O[C@@H]2O[C@H](CO)[C@@H](O)[C@H](O)[C@H]2O[C@H]2C[C@](C)(N)[C@H](O)[C@H](C)O2)Oc2ccc(cc2Cl)[C@H]1O [Vancomycin, vancomycin, reference compound]
VRSA10
  MBC: > 64 µg/mL
  MIC: > 64 µg/mL
VRE ATCC 700221
  MBC: > 64 µg/mL
  MIC: > 64 µg/mL
MRSA (USA300); 3.0×MIC
  time to three-log10 reduction in the initial inoculum of MRSA: 24 hours
MRSA (USA300); MRSA US300, 3.0×MIC
  time required to reduce the MRSA inoculum to zero colony forming units: 24 h
[6]
  MIC range against MRSA: 1 to 2 µg/mL
[7]; at 1×MIC
  MRSA biofilm mass disrupted: 3%
[7]; at 32×MIC
  reduction of MRSA biofilm mass: 34%
[3]; Enterococcus faecalis
  MBC: 64 µg/mL (≈ 44.2 µM)
VRS10 (VRSA)
  MBC: > 64 µg/mL
  MIC: > 64 µg/mL
VRS12 (VRSA)
  MBC: > 64 µg/mL
  MIC: > 64 µg/mL
[8]
  MBC: > 64 µg/mL
  MIC: > 64 µg/mL
NRS123 (MRSA USA400)
  MIC: 1 µg/mL (≈ 0.69 µM)
NRS384 (MRSA USA300)
  MIC: 1 µg/mL (≈ 0.69 µM)
NRS72 (MSSA)
  MIC: 2 µg/mL (≈ 1.38 µM)
NRS119 (MRSA)
  MIC: 1 µg/mL (≈ 0.69 µM)
NRS382 (MRSA USA100)
  MIC: 1 µg/mL (≈ 0.69 µM)
NRS383 (MRSA USA200)
  MIC: 1 µg/mL (≈ 0.69 µM)

## CCO/N=C(\C(=O)N[C@@H]1C(=O)N2C(C(=O)[O-])=C(Sc3nc(-c4cc[n+](C)cc4)cs3)CS[C@H]12)c1nsc(N)n1 [cefatroline]
[9]
  MIC range against MRSA and VRSA, reported: 0.5 to 4 µg/mL
